In brackets after ≈: the same amount, converted by molar mass. Read-outs that look alike come from different tables or passages of the source.
System: Mycobacterium tuberculosis
Settings: resistant strains

In the case of `c1ccc2c(c1)ccc1c3ccc(NCCCCN4CCCCC4)cc3ccc21` [Tx-5, N-(2′-chrysenyl)-4-(1′-piperidinyl)-butane-1,4-diamine], the “MIC, M. tuberculosis resisant. strains” value (2 wk) was 2 µg/mL (≈ 5.23 µM) and the “MIC, M. tuberculosis resisant. strains” value (4 wk) was 4 µg/mL (≈ 10.5 µM).

Source: patent publication US20050107430A1, “Antimicrobial and antiviral compounds” (priority 2003, published 2005)
